Data from publication PMC13170396 (Journal of controlled release : official journal of the …, 2025).

How the values were obtained:
[1] = test system: HCT116 and UISO-Mel29 cells; assay: Cell proliferation assay; type: cell-based, human
[2] = cited from earlier work; for clearance / elimination half-life t1/2 / volume of distribution: murine models
[3] = test system: p53-positive solid tumors; conditions: clinical; cited from earlier work
[4] = cited from earlier work
[5] = test system: HCT116, UISO-Mel29, CCD33Co and fibroblasts; assay: Confocal imaging of cell penetration; type: cell-based, human; conditions: AF-p28 20 μM or AF-Arg8 5 μM, 2 h, 37 °C, confocal microscopy, Fig. 2A

| Molecule | effect of CQ on the anti-proliferative effect of p28 ([1]; CQ 10 μM with varying concentrations of p28, 24 h, Fig. 6A, B) | cytotoxic activity in cancer cells ([1]; Fig. S4) | primary route of excretion [2] | clearance [2] [mL/min/kg] | elimination half-life t1/2 [2] [h] | volume of distribution [2] [L/kg] | adverse effects, toxicity, immunogenicity in humans [3] | water solubility [4] | cell penetration, cancer cells compared to normal cells [5] |
| --- | --- | --- | --- | --- | --- | --- | --- | --- | --- |
| CCN(CC)CCCC(C)Nc1ccnc2cc(Cl)ccc12 (stereo not shown) [CQ, chloroquine] | significantly enhanced the effect of p28 | dose-dependent cytotoxic activity | hepatic clearance | 165 | 46.6 | 667 |  |  |  |
| CSCC[C@H](NC(=O)CNC(=O)[C@H](CC(=O)O)NC(=O)[C@@H](NC(=O)[C@@H](NC(=O)[C@@H](NC(=O)CNC(=O)[C@H](CCC(N)=O)NC(=O)[C@H](CCSC)NC(=O)[C@H](CC(=O)O)NC(=O)[C@H](C)NC(=O)[C@H](C)NC(=O)[C@@H](NC(=O)[C@H](CO)NC(=O)[C@@H](N)CC(C)C)[C@@H](C)O)C(C)C)C(C)C)[C@@H](C)O)C(=O)N[C@@H](C)C(=O)N[C@@H](CO)C(=O)NCC(=O)N[C@@H](CC(C)C)C(=O)N[C@@H](CC(=O)O)C(=O)N[C@@H](CCCCN)C(=O)N[C@@H](CC(=O)O)C(=O)N[C@@H](Cc1ccc(O)cc1)C(=O)N[C@@H](CC(C)C)C(=O)N[C@@H](CCCCN)C(=O)N1CCC[C@H]1C(=O)N[C@@H](CC(=O)O)C(=O)N[C@@H](CC(=O)O)C(=O)O [p28] |  |  | renal clearance | 36.7 | 0.06 | 0.29 | no significant adverse effects, toxicity or immunogenicity | highly water soluble |  |
| octaarginine [Arg8] |  |  |  |  |  |  |  |  | penetrated both cancer and normal cells |
